Columns and labels:
morning eyelid swelling [1] = assay: Treatment of morning eyelid swelling (eyelid edema), eyelid volume by 3D scanner, treated eye vs untreated eye; type: in vivo, human; conditions: for reduction of morning eyelid swelling (result in words): topical to one eye, other eye untreated, 3D scanner
Method: In this study, the efficacy of naphazoline 0.1% ophthalmic solution was evaluated for treatment for eyelid edema. The eyelid volume for 11 subjects participating in the study was recorded in the afternoon of Day 1 and again upon arrival to the clinic the following morning (Day 2). […] The natural progression of morning eyelid swelling, as measured using 3D scanning technology is depicted in FIG. 10. The increase ranged from 14 mm^3 to 659 mm^3. Subjects were then dosed with naphazoline 0.1% (vasoconstrictor) in the right eye and eyelid volume was assessed at 5, 10, 15, 30, and 120 minutes following treatment using a 3-D scanner. […] A summary of all the patient data is depicted if FIG. 3L.
In a preliminary study with a similar design to that described above, NaCl 5% ophthalmic solution was evaluated as a potential treatment for eyelid edema. […] Eyelid swelling was assessed using a 3-D scanner at 5, 10, 15, 20, 30, and 120 minutes post-treatment. […] In one subject, this reduction was pronounced and was present through the 120 minute assessment time point. In the remaining three patients, treatment was not effective.
A total of 6 subjects (male, between the ages of 25 and 29) were evaluated. At the start of the study, five (5) baseline scans were performed per subject and eye using a 3D scanner. The next day, subjects were asked to five (5) scans of each eye, identical to Visit 1, were then taken.
Subjects received the 2 drops (40 μl each) of the combination treatment, with one minute apart each drop in one eye and no treatment in the other eye. Five (5) scans of each eye were taken, identical to Visit 1, 20 minutes after second drop instillation. Subjects were asked to grade their eyelid swelling post treatment. Digital photos were also taken at baseline and at 20 minutes post treatment.

morning eyelid swelling [2] = assay: as above; type: in vivo, human; conditions: topical to one eye, other eye untreated

[Cl-].[Na+] [NaCl 5% ophthalmic solution, sodium chloride]
patients in whom treatment was not effective (morning eyelid swelling [1]; 6 subjects): three | mean change from baseline versus negative controls (morning eyelid swelling [1]; FIG. 4G): numerically superior to negative controls, though the differences were not statistically significant | subjects with pronounced reduction in eyelid swelling (morning eyelid swelling [1]; present through the 120 minute assessment time point, 6 subjects): one | patients with a reduction in eyelid swelling (morning eyelid swelling [1]; through 15 minutes post-instillation, 6 subjects): Three | reduction of morning eyelid swelling (result in words) (morning eyelid swelling [1]): caused a reduction of eyelid swelling in several patients | reduction of morning eyelid swelling (result in words) (morning eyelid swelling [2]): some efficacy

OC[C@@H](O)[C@@H](O)[C@H](O)[C@H](O)CO [mannitol 12.5% solution, mannitol]
reduction of morning eyelid swelling (result in words) (morning eyelid swelling [1]): did reduce morning eyelid swelling

CNC[C@H](O)c1cccc(O)c1 [0.25% phenylephrine formulation, phenylephrine, reference compound]
reduction of morning eyelid swelling (result in words) (morning eyelid swelling [1]): did reduce morning eyelid swelling

c1ccc2c(CC3=NCCN3)cccc2c1 [naphazoline 0.1%, naphazoline, reference compound]
reduction of morning eyelid swelling (result in words) (morning eyelid swelling [1]): demonstrated efficacy | subjects with greater decrease in eyelid volume in treatment eye than non-treatment eye (morning eyelid swelling [1]; up to the 30 minute timepoint): 9 out of 11 | subjects with greater decrease in eyelid volume in treatment eye than non-treatment eye (morning eyelid swelling [1]; up to the 120 minute timepoint): 7 out of 11 | reduction of morning eyelid swelling (result in words) (morning eyelid swelling [2]; listed as naphazoline 0.5% solution): caused a reduction of eyelid swelling in most subjects
